These results are taken from ChEMBL document CHEMBL4482308, “Ghrelin o-acyltransferase inhibitors” (2017).

SMILES strings stand for the structures. Calls of active or inactive are those of the source. The calls are words filed in the database; no cut-off is given here. A value given as a limit tells only on which side of the number the result lay.

For data set [1], the target named is T1, Membrane-bound ghrelin O-acyltransferase MBOAT4 (Mus musculus) (UniProt P0C7A3).
T1 sequence (whole entry): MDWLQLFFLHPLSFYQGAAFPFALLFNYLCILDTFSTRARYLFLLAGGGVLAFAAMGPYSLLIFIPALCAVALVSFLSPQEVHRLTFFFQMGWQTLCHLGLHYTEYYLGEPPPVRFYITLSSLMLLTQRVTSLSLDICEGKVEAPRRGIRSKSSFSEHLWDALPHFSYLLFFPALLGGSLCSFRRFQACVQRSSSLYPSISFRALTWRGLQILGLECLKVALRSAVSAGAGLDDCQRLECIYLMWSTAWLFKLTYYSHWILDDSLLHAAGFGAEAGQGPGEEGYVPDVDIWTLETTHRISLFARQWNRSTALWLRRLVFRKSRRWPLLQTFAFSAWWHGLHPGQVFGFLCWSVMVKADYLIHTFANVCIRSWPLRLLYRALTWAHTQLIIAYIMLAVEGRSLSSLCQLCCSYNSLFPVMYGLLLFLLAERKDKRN
The experiment in a line: Inhibition of mouse GOAT expressed in HEK293FT cells co-expressing pre-proghrelin assessed as reduction in ghrelin octanoylation up to 1 uM incubated for 24 hrs by ELISA. It counts as cell-based. For orientation: An ELISA detects its analyte on a solid surface through an enzyme-linked reagent.

Data set [2] is described as follows: Cytotoxicity in HEK293FT cells co-expressing mouse GOAT and pre-proghrelin assessed as reduction in cell viability incubated for 24 hrs by alamar blue assay. It counts as cell-based. Particulars: human, read-out: LD50.

For `CC1(C)CC[C@]2(C(=O)O)CC[C@]3(C)[C@H](C(=O)C=C4[C@@]5(C)C=C(C#N)C(=O)C(C)(C)[C@@H]5CC[C@]43C)[C@@H]2C1`, in data set [1], the inhibition entry was “inactive”.

For `COC(=O)[C@]12CCC(C)(C)C[C@H]1[C@H]1C(=O)C=C3[C@@]4(C)C=C(C#N)C(=O)C(C)(C)[C@@H]4CC[C@@]3(C)[C@]1(C)CC2` [BARDOXOLONE METHYL], the CC50 at 24 h in data set [2] is at least 10 µM.

For `CCNC(=O)[C@]12CCC(C)(C)C[C@H]1[C@H]1C(=O)C=C3[C@@]4(C)C=C(C#N)C(=O)C(C)(C)[C@@H]4CC[C@@]3(C)[C@]1(C)CC2`, the CC50 at 24 h in data set [2] is at least 10 µM.
